Laboratory results reported in patent US20220009920A1 (GB005, Inc., priority 2020, published 2022).

Columns and labels:
Assay in all cases: Large panel kinase profiling
Format in all cases: biochemical
Conditions in all cases: 1 μM test article, 1 mM ATP
CDC42BPA/MRCKA = target: T1, CDC42BPA/MRCKA (Homo sapiens, UniProt Q5VT25)
T1 construct: AssayQuant Technologies, Inc. (ran the panel)
Method in brief: (§1)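 Profiling across the panel relied on the PhosphoSens CSox-Sensor format. A compound concentration of 1 μM and an ATP level of 1 mM were used throughout.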

EPHB2 = target: T2, EPHB2 (Homo sapiens, UniProt P29323)
T2 sequence (P29323 19-1055): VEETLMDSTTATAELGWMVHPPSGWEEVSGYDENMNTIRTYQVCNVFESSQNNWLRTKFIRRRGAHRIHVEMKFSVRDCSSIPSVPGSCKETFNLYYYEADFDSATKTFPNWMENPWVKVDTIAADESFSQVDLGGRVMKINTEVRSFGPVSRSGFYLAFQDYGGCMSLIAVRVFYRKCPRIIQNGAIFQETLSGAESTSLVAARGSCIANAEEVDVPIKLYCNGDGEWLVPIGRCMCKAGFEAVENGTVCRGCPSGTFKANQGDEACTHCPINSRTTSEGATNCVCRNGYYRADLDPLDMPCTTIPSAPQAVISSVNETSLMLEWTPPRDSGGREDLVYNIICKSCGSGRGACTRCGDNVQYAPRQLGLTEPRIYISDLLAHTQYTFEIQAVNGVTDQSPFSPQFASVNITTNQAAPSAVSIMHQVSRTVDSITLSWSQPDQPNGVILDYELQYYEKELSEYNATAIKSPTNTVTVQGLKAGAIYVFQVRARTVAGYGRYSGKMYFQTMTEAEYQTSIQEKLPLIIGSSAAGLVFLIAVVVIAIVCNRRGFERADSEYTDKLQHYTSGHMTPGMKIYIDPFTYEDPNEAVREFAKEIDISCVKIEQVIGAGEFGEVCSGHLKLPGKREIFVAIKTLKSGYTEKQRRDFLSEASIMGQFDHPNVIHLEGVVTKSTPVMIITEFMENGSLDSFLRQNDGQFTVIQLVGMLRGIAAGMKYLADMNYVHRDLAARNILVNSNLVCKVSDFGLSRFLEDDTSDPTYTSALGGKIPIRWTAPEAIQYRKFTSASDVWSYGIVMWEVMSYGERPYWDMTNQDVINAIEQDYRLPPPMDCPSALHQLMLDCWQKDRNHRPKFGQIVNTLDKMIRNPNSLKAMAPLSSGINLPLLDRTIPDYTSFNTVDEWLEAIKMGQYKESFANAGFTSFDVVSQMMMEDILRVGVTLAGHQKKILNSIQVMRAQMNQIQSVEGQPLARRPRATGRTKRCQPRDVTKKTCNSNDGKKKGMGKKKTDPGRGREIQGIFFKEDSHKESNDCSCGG
Method in brief: as §1

PRKACG = PRKACG (Homo sapiens, UniProt P22612)
Method in brief: as §1

SGK1 = target: T3, SGK1 (Homo sapiens, UniProt O00141)
T3 construct: AssayQuant Technologies, Inc. (contract assay)
T3 sequence (O00141 1-431): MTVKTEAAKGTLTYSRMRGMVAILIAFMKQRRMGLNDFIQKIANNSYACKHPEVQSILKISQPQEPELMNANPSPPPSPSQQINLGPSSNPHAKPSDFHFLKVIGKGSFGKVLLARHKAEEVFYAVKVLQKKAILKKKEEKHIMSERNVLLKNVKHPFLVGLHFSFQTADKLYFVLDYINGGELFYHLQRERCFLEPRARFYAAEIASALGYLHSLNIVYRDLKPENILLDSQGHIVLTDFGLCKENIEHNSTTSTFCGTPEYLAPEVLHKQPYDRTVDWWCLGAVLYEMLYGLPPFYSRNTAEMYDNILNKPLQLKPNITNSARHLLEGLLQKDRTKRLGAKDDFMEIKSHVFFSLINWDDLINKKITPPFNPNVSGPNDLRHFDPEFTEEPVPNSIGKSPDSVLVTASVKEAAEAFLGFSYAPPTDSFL
Method in brief: as §1

PAK2 = PAK2 (Homo sapiens, UniProt Q13177)
Method in brief: as §1

MAP4K5/KSH1 = target: T4, MAP4K5/KSH1 (Homo sapiens, UniProt Q9Y4K4)
T4 construct: AssayQuant Technologies, Inc. (service provider)
Method in brief: as §1

EIF2AK1/HRI = target: T5, EIF2AK1/HRI (Homo sapiens, UniProt Q9BQI3)
T5 construct: AssayQuant Technologies, Inc. (service laboratory)
Method in brief: as §1

T5 sequence (Q9BQI3 whole entry): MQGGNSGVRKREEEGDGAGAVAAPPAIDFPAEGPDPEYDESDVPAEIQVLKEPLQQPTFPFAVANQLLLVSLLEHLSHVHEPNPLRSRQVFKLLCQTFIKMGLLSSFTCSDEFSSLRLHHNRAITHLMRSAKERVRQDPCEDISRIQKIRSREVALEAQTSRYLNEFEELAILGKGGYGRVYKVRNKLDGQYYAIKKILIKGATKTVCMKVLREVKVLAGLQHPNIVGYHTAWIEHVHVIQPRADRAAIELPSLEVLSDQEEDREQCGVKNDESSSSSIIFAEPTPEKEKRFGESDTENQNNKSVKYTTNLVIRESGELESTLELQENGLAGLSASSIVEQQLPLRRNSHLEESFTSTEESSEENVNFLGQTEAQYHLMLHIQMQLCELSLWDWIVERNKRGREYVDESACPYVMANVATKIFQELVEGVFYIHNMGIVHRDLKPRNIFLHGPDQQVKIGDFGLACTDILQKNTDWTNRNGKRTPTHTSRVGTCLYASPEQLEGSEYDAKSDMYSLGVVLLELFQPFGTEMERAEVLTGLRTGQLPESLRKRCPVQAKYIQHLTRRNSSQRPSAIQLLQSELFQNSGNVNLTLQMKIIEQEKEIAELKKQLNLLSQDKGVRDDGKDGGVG
Chain of PAK2 (Q13177 whole entry, species assumed): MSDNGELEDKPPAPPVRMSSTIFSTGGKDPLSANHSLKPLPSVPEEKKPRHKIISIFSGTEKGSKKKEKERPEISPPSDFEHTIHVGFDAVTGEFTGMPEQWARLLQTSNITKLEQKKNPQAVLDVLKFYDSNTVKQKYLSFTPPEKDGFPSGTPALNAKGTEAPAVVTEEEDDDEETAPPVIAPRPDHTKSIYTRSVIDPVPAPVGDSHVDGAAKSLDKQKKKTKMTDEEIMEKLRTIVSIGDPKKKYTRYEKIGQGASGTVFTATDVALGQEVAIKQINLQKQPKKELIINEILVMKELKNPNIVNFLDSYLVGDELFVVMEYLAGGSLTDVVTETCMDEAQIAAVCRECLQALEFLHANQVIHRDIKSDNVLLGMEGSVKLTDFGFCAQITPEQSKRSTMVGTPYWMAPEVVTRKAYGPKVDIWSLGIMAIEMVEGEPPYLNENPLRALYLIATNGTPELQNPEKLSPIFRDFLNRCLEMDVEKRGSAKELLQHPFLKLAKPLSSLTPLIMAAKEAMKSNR
T4 sequence (Q9Y4K4 whole entry): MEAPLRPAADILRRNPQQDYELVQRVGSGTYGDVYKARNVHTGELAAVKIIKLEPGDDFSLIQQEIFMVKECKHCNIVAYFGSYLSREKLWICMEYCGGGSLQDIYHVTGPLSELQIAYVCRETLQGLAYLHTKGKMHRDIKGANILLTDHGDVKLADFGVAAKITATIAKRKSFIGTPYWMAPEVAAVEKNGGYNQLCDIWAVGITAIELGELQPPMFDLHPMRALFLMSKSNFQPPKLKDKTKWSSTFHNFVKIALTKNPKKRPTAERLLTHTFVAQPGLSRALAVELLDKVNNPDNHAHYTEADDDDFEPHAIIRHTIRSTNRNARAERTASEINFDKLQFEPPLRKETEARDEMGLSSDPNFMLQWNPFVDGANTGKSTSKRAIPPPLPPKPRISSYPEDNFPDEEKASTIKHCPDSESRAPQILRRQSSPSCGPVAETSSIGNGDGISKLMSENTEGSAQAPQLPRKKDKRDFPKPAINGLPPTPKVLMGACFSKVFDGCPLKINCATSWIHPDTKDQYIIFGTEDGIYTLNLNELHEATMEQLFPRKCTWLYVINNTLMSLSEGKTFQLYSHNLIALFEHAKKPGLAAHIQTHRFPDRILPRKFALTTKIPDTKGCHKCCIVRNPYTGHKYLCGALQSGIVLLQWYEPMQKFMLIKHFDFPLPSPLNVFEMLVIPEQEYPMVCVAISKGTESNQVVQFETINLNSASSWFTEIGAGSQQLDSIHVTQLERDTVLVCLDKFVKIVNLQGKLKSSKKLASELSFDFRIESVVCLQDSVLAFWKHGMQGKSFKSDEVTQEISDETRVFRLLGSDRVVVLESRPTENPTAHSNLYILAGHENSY
Chain of PRKACG (P22612 whole entry, species assumed): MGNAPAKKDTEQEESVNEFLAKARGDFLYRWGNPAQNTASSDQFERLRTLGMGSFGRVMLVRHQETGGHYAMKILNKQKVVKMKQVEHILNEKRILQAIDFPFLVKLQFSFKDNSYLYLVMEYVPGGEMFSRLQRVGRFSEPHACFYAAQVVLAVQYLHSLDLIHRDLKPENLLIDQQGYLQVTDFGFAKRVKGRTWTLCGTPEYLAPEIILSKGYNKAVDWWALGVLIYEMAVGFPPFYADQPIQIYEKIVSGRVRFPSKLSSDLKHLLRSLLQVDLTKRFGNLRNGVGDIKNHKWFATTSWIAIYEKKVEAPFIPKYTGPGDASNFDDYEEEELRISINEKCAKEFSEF
T1 sequence (Q5VT25 whole entry): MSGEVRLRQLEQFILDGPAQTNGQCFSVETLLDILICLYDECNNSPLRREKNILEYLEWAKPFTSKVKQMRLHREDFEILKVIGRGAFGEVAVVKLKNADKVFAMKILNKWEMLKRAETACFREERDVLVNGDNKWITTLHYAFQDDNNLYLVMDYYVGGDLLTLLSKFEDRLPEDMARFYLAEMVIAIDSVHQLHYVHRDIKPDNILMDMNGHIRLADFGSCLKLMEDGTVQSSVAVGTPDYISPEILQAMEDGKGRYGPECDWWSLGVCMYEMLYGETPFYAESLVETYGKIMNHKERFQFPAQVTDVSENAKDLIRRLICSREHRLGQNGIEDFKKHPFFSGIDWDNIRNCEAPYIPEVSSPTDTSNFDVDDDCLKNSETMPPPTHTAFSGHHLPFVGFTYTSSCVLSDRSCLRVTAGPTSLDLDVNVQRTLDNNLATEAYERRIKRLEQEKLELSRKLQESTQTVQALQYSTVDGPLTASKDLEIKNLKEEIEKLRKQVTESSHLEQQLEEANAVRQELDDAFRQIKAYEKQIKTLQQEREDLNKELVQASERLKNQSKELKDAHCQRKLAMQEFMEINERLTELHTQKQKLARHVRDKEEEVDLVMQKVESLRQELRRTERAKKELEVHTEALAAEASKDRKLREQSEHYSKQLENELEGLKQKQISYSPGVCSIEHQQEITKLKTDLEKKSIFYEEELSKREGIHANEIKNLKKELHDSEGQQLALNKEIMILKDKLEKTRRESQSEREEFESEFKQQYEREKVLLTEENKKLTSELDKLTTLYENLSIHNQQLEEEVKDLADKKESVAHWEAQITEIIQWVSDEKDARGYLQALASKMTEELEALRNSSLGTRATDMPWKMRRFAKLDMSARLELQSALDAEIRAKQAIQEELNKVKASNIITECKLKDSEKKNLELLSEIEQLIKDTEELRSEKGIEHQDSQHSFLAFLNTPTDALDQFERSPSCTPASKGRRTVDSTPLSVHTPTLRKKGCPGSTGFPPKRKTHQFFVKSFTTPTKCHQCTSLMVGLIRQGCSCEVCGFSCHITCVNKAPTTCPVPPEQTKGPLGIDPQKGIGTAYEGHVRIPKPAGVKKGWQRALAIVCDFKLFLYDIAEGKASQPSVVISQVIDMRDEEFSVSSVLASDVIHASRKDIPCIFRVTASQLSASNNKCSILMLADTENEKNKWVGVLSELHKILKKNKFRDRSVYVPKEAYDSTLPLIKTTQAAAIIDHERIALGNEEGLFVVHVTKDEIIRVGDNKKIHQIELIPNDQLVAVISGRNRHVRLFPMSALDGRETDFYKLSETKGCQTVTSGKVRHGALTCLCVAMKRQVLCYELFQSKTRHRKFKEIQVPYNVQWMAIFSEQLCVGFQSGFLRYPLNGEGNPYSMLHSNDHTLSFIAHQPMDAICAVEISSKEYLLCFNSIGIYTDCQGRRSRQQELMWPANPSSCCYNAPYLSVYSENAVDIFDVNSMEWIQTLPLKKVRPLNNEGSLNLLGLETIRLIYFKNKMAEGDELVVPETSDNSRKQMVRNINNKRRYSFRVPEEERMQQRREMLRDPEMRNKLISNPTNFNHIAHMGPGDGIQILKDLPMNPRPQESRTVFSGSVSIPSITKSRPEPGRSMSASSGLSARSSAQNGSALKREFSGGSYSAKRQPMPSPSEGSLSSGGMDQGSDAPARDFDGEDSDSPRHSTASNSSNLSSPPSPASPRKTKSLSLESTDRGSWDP

Compound | inhibition at 1 µM (CDC42BPA/MRCKA) [%] | inhibition at 1 µM (EPHB2) [%] | inhibition at 1 µM (PRKACG) [%] | inhibition at 1 µM (SGK1) [%] | inhibition at 1 µM (PAK2) [%] | inhibition at 1 µM (MAP4K5/KSH1) [%] | inhibition at 1 µM (EIF2AK1/HRI) [%]
C=CC(=O)N1CCCC(c2c(F)cc(C(N)=O)c3[nH]c4c(c23)CCCCC4)C1 (single isomer, unassigned) [Compound 5-6] | -30.9 | 21.3 | 4.2 | 4.3 | 13.9 | -1.1 | -6.1
C=CC(=O)N1CCC[C@@H](c2c(F)cc(C(N)=O)c3[nH]c4c(c23)CC2(CC4)CC2)C1 [Compound 6-2, (S)-5-(1-acryloylpiperidin-3-yl)-6-fluoro-1,2,4,9-tetrahydrospiro[carbazole-3,1′-cyclopropane]-8-carboxamide] | -16.2 | 11.8 | -27.2 | 10.7 | 1.3 | 4.1 | -34.9
C=CC(=O)N1CCC[C@@H](c2c(F)cc(C(N)=O)c3[nH]c4c(c23)CCC4)C1 [Compound 10-2, (S)-8-(1-acryloylpiperidin-3-yl)-7-fluoro-1,2,3,4-tetrahydrocyclo-penta[b]indole-5-carboxamide] | 1.8 | 0.9 | -19.2 | 14.8 | 7 | -4.9 | -89.5
